# Values quoted from earlier work, collected in patent US6610471B1, “Methods and compositions to investigate infection by hepatitis B virus and agents to prevent and treat the infection” (priority 1998, dated 2003).
# Tested on: chronic HBV infection
# Conditions: patients receiving interferon-α treatment, long-term studies; cited from earlier work
substance,measurement,value
interferon-α,patients with loss of circulating HBV antigens and improved survival rate,about 30 % of patients
